Data on two compounds can be found in BindingDB's records for doi:10.1021/jm950807f (University of Minnesota, 1996).

The experiment is described as follows: Binding affinity against Delta Opioid receptor in Guinea pig brain membranes.

Turning to `N[C@@]1(C2=N[C@]3(CC[C@@]4(O)[C@H]5Cc6ccc(O)c7c6C4(CCN5CC4CC4)[C@H]3O7)C(=O)N2)CC[C@@]2(O)[C@H]3Cc4ccc(O)c5c4C2(CCN3CC2CC2)[C@H]1O5` [(4S,5'R,13'R,17'S)-2-[(5R,13R,14R,17S)-14-amino-4-(cyclopropylmethyl)-10,17-dihydroxy-12-oxa-4-azapentacyclo[9.6.1.0^{1,13}.0^{5,17}.0^{7,18}]octadeca-7(18),8,10-trien-14-yl]-4'-(cyclopropylmethyl)-10',17'-dihydroxy-3,5-dihydro-12'-oxa-4'-azaspiro[imidazole-4,14'-pentacyclo[9.6.1.0^{1,13}.0^{5,17}.0^{7,18}]octadecane]-7',9',11'(18')-trien-5-one], the Ki stood at 0.00124 µM. In the case of `NC1=NC([C@]2(N)CC[C@@]3(O)[C@H]4Cc5ccc(O)c6c5C3(CCN4CC3CC3)[C@H]2O6)=N[C@]12CC[C@@]1(O)[C@H]3Cc4ccc(O)c5c4C1(CCN3CC1CC1)[C@H]2O5` [5-amino-2,4(Bis-4-cyclopropylmethyl-10,17-dihydroxy-(1S,5R,13R,17S)-12-oxa-4-azapentacyclo[9.6.1.01,13.05,17.07,18]octadeca-7(18),8,10-trien-14-one) imidazole] it was 0.183 µM.
